From ChEMBL document CHEMBL1201862, “PubChem BioAssay data set” (2004)
Active and inactive are the calls of the source.

Assays:
[1] = molecular target: 26S proteasome non-ATPase regulatory subunit 14 (Homo sapiens, UniProt O00487); assay: inhibition of proteasome subunit RPN11 – biochemical, fluorescence polarization, uHTS hits, confirmation (AID 602368); type: functional
[2] = molecular target: 72 kDa type IV collagenase (Homo sapiens, UniProt P08253); assay: Dose Response validation of uHTS RPN11 inhibitor hits using a MMP-2 Fluorescence assay.; type: functional
[3] = molecular target: Prothrombin (Bos taurus, UniProt P00735); assay: thrombin inhibition, dose response, biochemical, fluorescence polarization, uHTS hits (AID 602369); type: functional
[4] = molecular target: T1, Coagulation factor XII (Homo sapiens, UniProt P00748); type: functional;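 also: activated factor XIIa alpha cleaving a fluorogenic AMC peptide substrate; inhibitor potency from loss of enzyme activity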
T1 sequence (P00748 whole entry): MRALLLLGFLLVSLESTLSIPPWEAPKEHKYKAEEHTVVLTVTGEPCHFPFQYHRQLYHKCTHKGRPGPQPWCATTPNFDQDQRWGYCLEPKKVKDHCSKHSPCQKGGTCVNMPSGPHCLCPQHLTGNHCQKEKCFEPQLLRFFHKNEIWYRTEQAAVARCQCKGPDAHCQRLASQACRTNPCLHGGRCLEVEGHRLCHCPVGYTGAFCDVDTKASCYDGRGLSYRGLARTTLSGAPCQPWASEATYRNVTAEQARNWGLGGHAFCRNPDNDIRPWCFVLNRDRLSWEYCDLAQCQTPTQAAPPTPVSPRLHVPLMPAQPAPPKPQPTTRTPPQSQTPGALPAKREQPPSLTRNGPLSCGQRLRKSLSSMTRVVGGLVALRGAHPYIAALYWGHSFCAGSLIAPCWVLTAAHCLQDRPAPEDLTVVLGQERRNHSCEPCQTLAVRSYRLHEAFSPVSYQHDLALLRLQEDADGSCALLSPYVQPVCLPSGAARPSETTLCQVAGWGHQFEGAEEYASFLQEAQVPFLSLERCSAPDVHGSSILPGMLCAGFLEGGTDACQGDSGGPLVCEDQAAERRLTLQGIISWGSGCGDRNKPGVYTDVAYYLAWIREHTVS

[5] = molecular target: Eukaryotic translation initiation factor 4E (Mus musculus, UniProt P63073); assay: eIF4E–eIF4G protein interaction inhibitors, dose response, biochemical, TR-FRET (AID 855); type: functional;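 also: potency for disrupting eIF4E binding to eIF4GI seen as loss of FRET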
[6] = molecular target: Prothrombin (Homo sapiens, UniProt P00734); assay: Thrombin 1536 HTS Dose Response Confirmation. [Related pubchem assays: 1046 (Thrombin 1536 HTS; hits were confirmed in this assay)]; type: functional
[7] = molecular target: T2, Voltage-gated N-type calcium channel alpha-1B subunit/Amyloid beta A4 precursor protein-binding family A member 1 (Homo sapiens, UniProt Q00975+Q02410); type: protein assay
[8] = molecular target: T2, Voltage-gated N-type calcium channel alpha-1B subunit/Amyloid beta A4 precursor protein-binding family A member 1; type: protein assay; remark: listed apart in the source
[9] = tested on: HEK293; assay: NOD1 signaling inhibitors, primary screen, cell-based, luminescence, uHTS (AID 1578); type: functional; conditions: Homo sapiens
[10] = tested on: HEK293; assay: cells; type: functional, cell-based; conditions: Homo sapiens
[11] = tested on: HEK293; assay: cells; type: functional, cell-based; conditions: Homo sapiens; remark: listed apart in the source
[12] = molecular target: Nucleotide-binding oligomerization domain-containing protein 2 (Homo sapiens, UniProt Q9HC29); assay: NOD2 signaling inhibitors, cell-based, luminescence, uHTS, HEK293 (AID 1566); type: functional
[13] = tested on: HEK293; assay: NOD2 signaling inhibitors in MDP-stimulated cells, cell-based, uHTS, luminescence (AID 2001); type: functional; conditions: Homo sapiens
[14] = tested on: HEK293; assay: cells; type: functional, cell-based; conditions: Homo sapiens; remark: listed apart in the source
[15] = molecular target: T3, Calpain-2 catalytic subunit (Sus scrofa, UniProt P43367); assay: pig calpain II inhibitor potency, dose response, biochemical, fluorogenic peptide substrate (AID 1420); type: functional
T3 sequence (P43367 whole entry): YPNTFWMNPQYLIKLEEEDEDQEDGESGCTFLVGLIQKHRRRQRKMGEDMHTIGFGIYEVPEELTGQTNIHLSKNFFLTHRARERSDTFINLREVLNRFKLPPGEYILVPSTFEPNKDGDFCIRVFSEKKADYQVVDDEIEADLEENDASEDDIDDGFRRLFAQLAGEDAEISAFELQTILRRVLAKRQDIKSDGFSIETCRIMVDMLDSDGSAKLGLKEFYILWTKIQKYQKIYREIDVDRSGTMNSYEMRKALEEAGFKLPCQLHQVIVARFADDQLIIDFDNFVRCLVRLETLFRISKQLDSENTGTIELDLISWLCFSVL

[16] = molecular target: T4, Cytochrome P450 3A4 (Homo sapiens, UniProt P08684); conditions: Potency
[17] = tested on: H9c2; assay: cells; type: functional, cell-based; conditions: Rattus norvegicus, H9c2, Myocardium;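 also: confirmatory concentration-response retest of ultra-high-throughput screening hits for modulation of myocardial damage; cell death induced by hydrogen peroxide oxidative stress; compound pretreatment for 60 min then peroxide exposure for 2 h; potency is for protecting the cells against peroxide damage rather than for killing them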
[18] = inhibitors of PGC1a acetylation in cells, dose response, cell-based, cherry-picked samples (AID 720514); type: functional;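 also: potency may reflect raised or lowered acetylation signal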
[19] = molecular target: DNA dC->dU-editing enzyme APOBEC-3G (Homo sapiens, UniProt Q9HC16); assay: Dose Response confirmation of small molecule APOBEC3G DNA Deaminase Inhibitors via a fluorescence-based single-stranded DNA deaminase assay. [Related pubchem assays (depositor defined):AID493012, AID493028]; type: functional
[20] = molecular target: T5, Heat shock factor protein 1 (Mus musculus, UniProt P38532); assay: inhibition of MG132-induced HSE-luciferase signal, confirmation, cell-based, NIH3T3, luminescence, dose retest (AID 2382); type: functional;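 also: NIH3T3 fibroblasts with HSF1-driven luciferase reporter stressed by proteasome inhibitor MG132; luminescence from HSF1-driven luciferase expression after 8 hours of MG132 stress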
T5 sequence (P38532 whole entry): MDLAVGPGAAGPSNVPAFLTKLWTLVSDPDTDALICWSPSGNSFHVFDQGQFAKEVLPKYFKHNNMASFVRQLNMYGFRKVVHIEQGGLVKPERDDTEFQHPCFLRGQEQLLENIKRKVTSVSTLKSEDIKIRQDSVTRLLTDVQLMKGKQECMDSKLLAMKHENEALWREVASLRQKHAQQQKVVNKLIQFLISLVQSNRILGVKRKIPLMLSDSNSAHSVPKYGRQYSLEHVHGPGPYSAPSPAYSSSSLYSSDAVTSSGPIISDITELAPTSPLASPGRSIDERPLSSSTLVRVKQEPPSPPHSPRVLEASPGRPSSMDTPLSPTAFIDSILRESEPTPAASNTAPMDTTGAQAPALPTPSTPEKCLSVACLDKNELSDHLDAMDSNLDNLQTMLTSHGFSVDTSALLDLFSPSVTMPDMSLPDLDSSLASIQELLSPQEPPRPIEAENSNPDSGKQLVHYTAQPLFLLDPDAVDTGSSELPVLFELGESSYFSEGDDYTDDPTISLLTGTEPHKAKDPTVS

[21] = molecular target: Cytochrome P450 2C9 (Homo sapiens, UniProt P11712)
[22] = molecular target: T6, Cytochrome P450 1A2 (Homo sapiens, UniProt P05177);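 also: PubChem cytochrome P450 panel assay, CYP1A2 panel member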
T6 sequence (P05177 whole entry): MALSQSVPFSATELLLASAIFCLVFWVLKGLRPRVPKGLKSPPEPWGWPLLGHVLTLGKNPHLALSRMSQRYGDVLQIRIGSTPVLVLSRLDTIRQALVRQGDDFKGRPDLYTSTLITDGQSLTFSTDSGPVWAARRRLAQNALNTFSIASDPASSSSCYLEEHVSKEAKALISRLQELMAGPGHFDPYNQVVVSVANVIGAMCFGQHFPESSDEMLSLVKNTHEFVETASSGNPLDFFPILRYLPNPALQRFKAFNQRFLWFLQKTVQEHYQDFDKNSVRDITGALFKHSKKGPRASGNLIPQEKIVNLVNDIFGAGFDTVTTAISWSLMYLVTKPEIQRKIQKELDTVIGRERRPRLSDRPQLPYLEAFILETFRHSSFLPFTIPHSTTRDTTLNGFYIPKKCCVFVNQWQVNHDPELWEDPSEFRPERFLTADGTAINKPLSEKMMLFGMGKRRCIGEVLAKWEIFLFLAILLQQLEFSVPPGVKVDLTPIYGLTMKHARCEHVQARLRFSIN

[23] = molecular target: T4, Cytochrome P450 3A4
[24] = growth suppression of PTEN-null colon cells, dose response, cell-based, HCT116 PTEN knockout (AID 1047); type: functional;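 also: HCT116 colon tumor cells with PTEN knocked out; cells exposed to compound for 60 hours before readout; potency for loss of cell viability measured by luminescence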
[25] = growth suppression of beta-catenin-knockout colon cells, dose response, cell-based, HCT116, human colon tumor (AID 1045); type: functional;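 also: HCT116 colon tumor cells with beta catenin knocked out; cells exposed to compound for 60 hours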
[26] = molecular target: Large T antigen (Simian virus 40, UniProt P03070); type: functional, Betapolyomavirus macacae;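 also: Confirmatory-stage PubChem screen for compounds that inhibit SV40 T antigen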
Sequence of Large T antigen (P03070 whole entry): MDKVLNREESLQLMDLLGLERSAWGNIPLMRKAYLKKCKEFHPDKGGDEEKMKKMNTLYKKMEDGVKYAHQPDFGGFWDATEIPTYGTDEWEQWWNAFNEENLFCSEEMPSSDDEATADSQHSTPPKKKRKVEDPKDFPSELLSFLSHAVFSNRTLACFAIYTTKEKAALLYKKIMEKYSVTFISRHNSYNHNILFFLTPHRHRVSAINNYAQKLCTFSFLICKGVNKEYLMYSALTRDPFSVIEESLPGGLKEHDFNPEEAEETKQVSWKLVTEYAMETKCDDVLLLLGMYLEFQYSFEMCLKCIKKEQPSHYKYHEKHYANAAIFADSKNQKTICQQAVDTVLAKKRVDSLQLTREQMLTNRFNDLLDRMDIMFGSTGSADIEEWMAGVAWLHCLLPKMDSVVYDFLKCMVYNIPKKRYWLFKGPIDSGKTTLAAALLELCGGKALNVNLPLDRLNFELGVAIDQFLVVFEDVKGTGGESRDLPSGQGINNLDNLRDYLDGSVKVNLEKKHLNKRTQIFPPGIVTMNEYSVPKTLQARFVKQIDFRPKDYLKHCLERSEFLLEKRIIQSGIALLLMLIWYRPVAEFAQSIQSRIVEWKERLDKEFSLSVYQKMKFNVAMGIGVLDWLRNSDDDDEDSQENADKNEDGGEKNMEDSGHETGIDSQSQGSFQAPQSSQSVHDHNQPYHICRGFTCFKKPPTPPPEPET

Sequence of 26S proteasome non-ATPase regulatory subunit 14 (O00487 whole entry): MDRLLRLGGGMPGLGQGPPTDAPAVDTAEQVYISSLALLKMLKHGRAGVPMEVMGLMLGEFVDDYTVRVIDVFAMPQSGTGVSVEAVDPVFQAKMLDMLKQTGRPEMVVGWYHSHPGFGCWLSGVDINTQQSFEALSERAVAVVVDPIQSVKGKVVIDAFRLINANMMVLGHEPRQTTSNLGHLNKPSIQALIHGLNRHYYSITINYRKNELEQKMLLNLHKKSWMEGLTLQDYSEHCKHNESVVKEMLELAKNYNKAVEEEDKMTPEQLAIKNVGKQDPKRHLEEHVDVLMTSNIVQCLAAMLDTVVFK
T4 sequence (P08684 whole entry): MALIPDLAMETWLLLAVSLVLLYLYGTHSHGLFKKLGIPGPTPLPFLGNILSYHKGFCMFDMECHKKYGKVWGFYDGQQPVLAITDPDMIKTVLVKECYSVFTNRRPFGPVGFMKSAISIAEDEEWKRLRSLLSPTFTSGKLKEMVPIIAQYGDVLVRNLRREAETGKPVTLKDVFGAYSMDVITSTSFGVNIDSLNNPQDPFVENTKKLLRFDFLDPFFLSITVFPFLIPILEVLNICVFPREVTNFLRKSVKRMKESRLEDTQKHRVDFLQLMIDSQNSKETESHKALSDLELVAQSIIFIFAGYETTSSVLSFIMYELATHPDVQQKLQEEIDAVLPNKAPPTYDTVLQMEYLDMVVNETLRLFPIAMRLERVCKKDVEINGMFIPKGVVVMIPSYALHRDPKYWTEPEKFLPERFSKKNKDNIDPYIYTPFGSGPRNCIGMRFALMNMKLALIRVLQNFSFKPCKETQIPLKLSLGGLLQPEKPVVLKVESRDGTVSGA
Sequence of 72 kDa type IV collagenase (P08253 whole entry): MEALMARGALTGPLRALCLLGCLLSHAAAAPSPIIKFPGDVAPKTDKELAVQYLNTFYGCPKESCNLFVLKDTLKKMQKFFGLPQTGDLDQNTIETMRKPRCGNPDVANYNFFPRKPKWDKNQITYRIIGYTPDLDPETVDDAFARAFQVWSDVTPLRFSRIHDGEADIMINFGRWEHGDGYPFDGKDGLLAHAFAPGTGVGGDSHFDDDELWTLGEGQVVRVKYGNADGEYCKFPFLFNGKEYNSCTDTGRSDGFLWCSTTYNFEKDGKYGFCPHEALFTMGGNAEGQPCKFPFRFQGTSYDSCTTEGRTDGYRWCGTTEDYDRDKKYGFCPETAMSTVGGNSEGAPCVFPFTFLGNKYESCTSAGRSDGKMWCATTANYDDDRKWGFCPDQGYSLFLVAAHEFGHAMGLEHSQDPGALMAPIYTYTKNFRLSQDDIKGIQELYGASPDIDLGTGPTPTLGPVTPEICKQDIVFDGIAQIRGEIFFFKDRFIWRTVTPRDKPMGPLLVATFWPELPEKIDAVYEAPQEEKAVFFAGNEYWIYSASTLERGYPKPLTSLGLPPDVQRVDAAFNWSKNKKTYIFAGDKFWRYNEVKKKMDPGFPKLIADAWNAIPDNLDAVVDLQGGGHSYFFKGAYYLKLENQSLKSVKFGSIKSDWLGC
Sequence of Eukaryotic translation initiation factor 4E (P63073 whole entry): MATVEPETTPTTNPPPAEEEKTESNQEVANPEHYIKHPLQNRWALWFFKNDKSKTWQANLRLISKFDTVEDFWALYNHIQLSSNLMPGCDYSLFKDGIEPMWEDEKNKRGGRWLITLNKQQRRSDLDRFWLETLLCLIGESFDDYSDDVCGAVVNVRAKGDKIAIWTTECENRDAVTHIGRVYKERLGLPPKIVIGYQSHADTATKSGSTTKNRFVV
Sequence of DNA dC->dU-editing enzyme APOBEC-3G (Q9HC16 whole entry): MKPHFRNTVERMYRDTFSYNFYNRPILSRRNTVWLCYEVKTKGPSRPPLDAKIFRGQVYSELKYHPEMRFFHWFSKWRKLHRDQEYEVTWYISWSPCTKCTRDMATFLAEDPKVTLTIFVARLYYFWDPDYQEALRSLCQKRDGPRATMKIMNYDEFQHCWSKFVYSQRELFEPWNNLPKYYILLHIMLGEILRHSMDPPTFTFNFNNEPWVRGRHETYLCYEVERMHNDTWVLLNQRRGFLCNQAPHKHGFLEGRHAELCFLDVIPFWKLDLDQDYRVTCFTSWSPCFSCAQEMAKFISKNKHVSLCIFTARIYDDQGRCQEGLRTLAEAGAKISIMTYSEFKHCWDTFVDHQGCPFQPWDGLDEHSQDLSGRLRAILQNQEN
Sequence of Cytochrome P450 2C9 (P11712 whole entry): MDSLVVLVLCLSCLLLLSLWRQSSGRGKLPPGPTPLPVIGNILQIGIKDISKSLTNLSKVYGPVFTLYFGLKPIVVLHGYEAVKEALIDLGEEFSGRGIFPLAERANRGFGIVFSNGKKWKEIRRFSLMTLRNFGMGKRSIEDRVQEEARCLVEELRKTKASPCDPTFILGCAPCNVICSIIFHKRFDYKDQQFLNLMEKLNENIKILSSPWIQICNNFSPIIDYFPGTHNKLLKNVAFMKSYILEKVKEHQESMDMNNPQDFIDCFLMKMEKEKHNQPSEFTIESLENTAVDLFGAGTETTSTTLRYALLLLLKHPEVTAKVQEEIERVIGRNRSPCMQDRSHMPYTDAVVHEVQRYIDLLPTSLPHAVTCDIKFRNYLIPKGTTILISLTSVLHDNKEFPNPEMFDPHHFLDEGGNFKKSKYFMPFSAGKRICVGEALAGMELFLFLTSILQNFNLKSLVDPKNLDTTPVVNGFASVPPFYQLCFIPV
Sequence of Nucleotide-binding oligomerization domain-containing protein 2 (Q9HC29 whole entry, the tested form may be a part): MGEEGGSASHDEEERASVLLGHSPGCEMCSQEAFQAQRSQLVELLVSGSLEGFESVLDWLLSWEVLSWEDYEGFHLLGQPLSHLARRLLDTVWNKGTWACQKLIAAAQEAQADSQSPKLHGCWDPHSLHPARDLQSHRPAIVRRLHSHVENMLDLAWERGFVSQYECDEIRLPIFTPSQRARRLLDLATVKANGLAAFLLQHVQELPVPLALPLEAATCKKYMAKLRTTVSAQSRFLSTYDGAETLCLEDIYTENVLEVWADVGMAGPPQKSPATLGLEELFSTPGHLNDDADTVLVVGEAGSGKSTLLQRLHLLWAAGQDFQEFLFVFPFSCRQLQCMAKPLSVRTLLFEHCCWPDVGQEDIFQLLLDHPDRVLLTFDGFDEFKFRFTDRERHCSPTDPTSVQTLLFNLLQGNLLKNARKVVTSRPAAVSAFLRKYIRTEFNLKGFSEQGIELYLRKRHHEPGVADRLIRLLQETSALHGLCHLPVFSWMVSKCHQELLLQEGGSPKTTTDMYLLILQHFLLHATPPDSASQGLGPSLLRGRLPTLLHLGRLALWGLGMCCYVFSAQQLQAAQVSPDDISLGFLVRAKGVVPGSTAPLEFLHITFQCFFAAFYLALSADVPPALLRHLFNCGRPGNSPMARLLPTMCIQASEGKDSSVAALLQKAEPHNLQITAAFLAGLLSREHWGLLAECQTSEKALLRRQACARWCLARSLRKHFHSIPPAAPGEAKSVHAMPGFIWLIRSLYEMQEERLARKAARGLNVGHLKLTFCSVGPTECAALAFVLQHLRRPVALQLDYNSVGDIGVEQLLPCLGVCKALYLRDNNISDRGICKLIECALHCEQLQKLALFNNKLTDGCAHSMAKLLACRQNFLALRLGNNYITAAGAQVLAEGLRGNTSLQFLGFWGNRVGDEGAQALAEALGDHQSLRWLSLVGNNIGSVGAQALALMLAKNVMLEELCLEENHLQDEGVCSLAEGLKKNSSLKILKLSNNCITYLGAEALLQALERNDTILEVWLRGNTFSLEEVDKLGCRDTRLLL

Structure (SMILES): CC(=O)C1=C(O)C(=CC=Cc2ccccc2)OC1=O
- IC50 [1]: 35.2 µM (active)
- IC50 [2]: > 100 µM (inactive)
- IC50 [3]: 50.4 µM (active)

Structure (SMILES): Cc1ccc(C(=O)NCCN2CCNC2=O)cc1
- IC50 [4]: > 50 µM (inactive)

Structure (SMILES): c1ccc(-n2nnc3cnccc32)cc1
- IC50 [5]: > 64 µM (inactive)

Structure (SMILES): N#Cc1ccccc1NC(=O)COC(=O)COc1ccccc1[N+](=O)[O-]
- IC50 [6]: 9.18 µM (active)

Structure (SMILES): CCN1C(=O)c2[nH]nc(C(=O)OC)c2C1=O
- IC50 [4]: > 50 µM (inactive)

Structure (SMILES): NS(=O)(=O)c1ccc(CCNC(=O)/C=C/c2ccc([N+](=O)[O-])cc2)cc1
- IC50 [7]: 9.65 µM (active)
- IC50 [8]: > 50 µM (inactive)

Structure (SMILES): COc1cc([N+](=O)[O-])ccc1-c1ccc(/C=N/NC(=O)c2ccccc2O)o1
- EC50 [9]: > 20 µM (inactive)
- IC50 [10]: 19.9 µM (active)
- IC50 [11]: > 20 µM (inactive)
- EC50 [12]: > 20 µM (inactive)
- IC50 [13]: 14.1 µM (inactive)
- IC50 [14]: > 20 µM (inactive)
- IC50 [15]: 8.3 µM (not active)

Structure (SMILES): CC(CCC(=O)O)(c1ccc(O)cc1)c1ccc(O)cc1
- AC50 [16]: 39.8 µM (inconclusive)

Structure (SMILES): CC(Oc1ccccc1)C(=O)NC1C(=O)N2C(C(=O)O)C(C)(C)S[C@@H]12 (some centres undefined)
- AC50 [16]: 0.251 µM (inconclusive)

Structure (SMILES): O=[N+]([O-])c1cc(-c2nnc(O)c3ccccc23)ccc1NCCCO
- IC50 [17]: 16.3 µM (active)
- AC50 [18]: 25 µM (active)

Structure (SMILES): Cc1cc(C)n(C(=O)CNc2cccc(Cl)c2C)n1
- IC50 [4]: > 50 µM (inactive)

Structure (SMILES): Cc1nc(NCCc2ccccc2F)c(C#N)c(C)c1[N+](=O)[O-]
- IC50 [6]: > 50 µM (not active)

Structure (SMILES): O=c1c(O)c(-c2ccc(O)c(O)c2)oc2c(OC3OC(CO)C(O)C(O)C3O)c(O)cc(O)c12 (centres undefined)
- AC50 [16]: 39.8 µM (inconclusive)

Structure (SMILES): CCN1C(C)=C(C(=O)OC)C(c2ccccc2)N2C(=O)[C@@]3(C(=O)OC)O[C@@]12C1C(=O)CCCC13 (some centres undefined)
- AC50 [16]: 3.98 µM (inconclusive)

Structure (SMILES): CCOC(=O)C1CCN(C(=O)CCc2nc3sc4c(c3c(=O)[nH]2)CCCC4)CC1
- IC50 [1]: 31.6 µM (active)
- IC50 [2]: > 100 µM (inactive)
- IC50 [3]: 36.5 µM (active)

Structure (SMILES): CCOc1cc(C(=S)N2CCOCC2)ccc1O
- IC50 [5]: > 64 µM (inactive)
- IC50 [19]: 42.8 µM (active)

Structure (SMILES): O=C(c1cccs1)n1nc(-c2ccco2)nc1SCc1ccccc1
- EC50 [20]: > 195 µM (not active)
- IC50 [6]: 1.48 µM (active)

Structure (SMILES): COc1ccc(Oc2c(Cl)cnn(-c3ccccc3)c2=O)cc1
- AC50 [18]: 19.7 µM (active)
- AC50 [21]: 11.2 µM (inconclusive)

Structure (SMILES): O=C(C1CC1)N1C[C@@H]2N[C@H](C1)[C@@H]2c1ccc(/C=C/c2ccccc2)cc1
- AC50 [18]: 32.3 µM (active)

Structure (SMILES): O=C(CC1Sc2ncnn2C1=O)Nc1ccc(Br)cc1 (centres undefined)
- IC50 [19]: 55.8 µM (active)

Structure (SMILES): Cc1ccc(SCc2cc(=O)[nH]c(NC(N)=Nc3ccc(C)c(C)c3)n2)cc1
- IC50 [5]: > 64 µM (inactive)
- AC50 [22]: 5.62 µM (inconclusive)
- AC50 [23]: 7.08 µM (inconclusive)
- AC50 [21]: 2.24 µM (inconclusive)

Structure (SMILES): O=C(Nc1ccc(F)cc1)Nc1nnc(-c2ccncc2)s1
- EC50 [24]: 22.4 µM (active)
- EC50 [25]: 25.9 µM (active)
- IC50 [1]: 23.2 µM (active)
- IC50 [2]: > 100 µM (inactive)
- IC50 [3]: 65.5 µM (active)

Structure (SMILES): COc1cc(/C=C2\N=C3CCCCCN3C2=O)ccc1O
- IC50 [26]: 9.11 µM (active)
- IC50 [1]: 14.8 µM (active)
- IC50 [2]: > 100 µM (inactive)
- IC50 [3]: 29.7 µM (active)

Structure (SMILES): CCc1c(C)sc(NC(=O)C2CCCCC2C(=O)O)c1C(N)=O (centres undefined)
- IC50 [5]: > 64 µM (inactive)
